Assay results as given in US20090203750A1, “5-HT2C Receptor Agonists as Anorectic Agents” (priority 2005, published 2009).
Like-named read-outs stand apart in the source and are kept apart here.

Assays:
Type in all cases: cell-based
human 5-HT2B receptor = biological target: T1, human 5-HT2B receptor (Homo sapiens, UniProt P41595); test: Functional activity by Ca++-flux (intracellular calcium mobilization), 5-HT2B
T1 construct: expressed in transfected cells; host or cells: HEK293 (ATCC CRL-1573), retroviral infection with pBabepuro-FLAG-h5-HT2BR, polyclonal line

human 5-HT2A receptor = biological target: T2, human 5-HT2A receptor (Homo sapiens, UniProt P28223); test: Functional activity by Ca++-flux (intracellular calcium mobilization), 5-HT2A; details: Ca++-flux, HEK-293 cells, NA = not active
T2 construct: expressed in transfected cells; host or cells: HEK-293
Experimental: The functional activity of the compounds for the human 5-HT2A, human 5-HT2B, and human 5-HT2C receptors is determined by measurement of Ca++-flux as detailed in the Examples, in transiently transfected HEK-293 cells and the results are summarized in Table I. Structures of compounds listed in Table I are given in Scheme 15.
(§1) The functional activity of compounds for the human 5-HT2A, human 5-HT2B, and human 5-HT2C receptors as agonists, partial agonists and antagonists is determined by measurement of Ca++-flux. The results are summarized in Table 1 where EC50 for different receptors are given (nM) and the ratio of activities 2A/2C and 2B/2C are also given. As noted above, other methods for assessing agonist/antagonist function of compounds for 5-HT2 family receptors are known in the art.
(§2) For these studies stably expressing lines of h5-HT2A, h5-HT2B, and h5-HT2C receptors are prepared in HEK-293 cells. For the h5-HT2A and h5-HT2C-INI receptors, stably expressing HEK-293 cell lines were constructed as previously described using a pIRES-NEO vector system (See: Rauser et al, J Pharmacol Exp Ther 299: 83-89, 2001).
(§3) Stable cell lines were plated with ˜40,000 cells/well into uncoated (3T3 cells) or poly-L-lysine coated (HEK293 cells) 96-well plates in DMEM supplemented with 5% dialyzed FBS. 16-24 hrs post-plating, the medium was aspirated and replaced with 30 μl/well of Calcium Assay Kit Component A Dye (Molecular Devices; Sunnyvale, Calif.) dissolved in 30 ml/bottle of assay buffer (2.5 mM probenecid, 20 mM Hepes, and 1× Hanks' Balanced Salt Solution (Invitrogen; Carlsbad, Calif.) (138 mM NaCl, 5.3 mM KCl, 1.3 mM CaCl2, 0.49 mM MgCl2, 0.41 mM MgSO4, 0.44 mM KH2PO4, 0.34 mM Na2HPO4) pH 7.4. Plates were incubated in the dye for 1 hr at 37° C. Dilutions were made in assay buffer as 2× stocks and added to 96-well drug plates. Fluorometric imaging was performed using a FlexStation II plate reader (Molecular Devices) reading the plate at 1.5 second intervals for 1 min. After establishing a fluorescent baseline (excitation at 485 nm and emission at 525 nm, using a […] cutoff), the FlexStation II automatically transferred 30 μl of 2× drug stocks from the drug plate to the cell plate at the 20 second time point with reading for another 40 seconds. Peak relative fluorescence units (RFU) were subtracted from baseline RFUs using SoftMax Pro (Molecular Devices) and values were imported into GraphPad Prism version 4.03 (GraphPad Software; San Diego, Calif.) for analysis. Ca++-flux studies are very convenient for initial screening of large numbers of compounds for agonist activity.
Compounds are resuspended in DMSO at a stock concentration of 2-15 mM and, for a typical agonist screen, are diluted in assay buffer to a final 2× concentration of 20 μM into drugs plates. Compounds are added in duplicate to cell plates using the FlexStation II as described to identify agonists, defined as having >10% of maximal 5-HT response. […] Generally, screens are performed twice with each determination being made in duplicate. Typical Z′-factor (Zhang et al., 1999) values for agonist screens ranged from 0.61-0.79 (5-HT2AR), 0.42-0.81 (5-HT2BR) and 0.38-0.72 (5-HT2CR); these Z′-factor values are adequate for screening studies in which N=2 determinations are made and the screens replicated for a total of N=4 determinations.
(§4) Compounds identified by primary screens to be agonists are subsequently used in concentration-response experiments to verify the initial observations and obtain agonist potencies. Concentration-response studies are performed in triplicate or quadruplicate at each concentration and repeated three times. Baseline-subtracted RFU values imported into GraphPad Prism are analyzed by non-linear regression to obtain pEC50 values, and normalized to maximal 5-HT response to obtain relative efficacies.

human 5-HT2C receptor = biological target: T3, human 5-HT2C receptor (Homo sapiens, UniProt P28335); test: Functional activity by Ca++-flux (intracellular calcium mobilization), 5-HT2C; details: for 2A/2C ratio: ratio of EC50 5-HT2A / 5-HT2C; for 2B/2C ratio: ratio of EC50 5-HT2B / 5-HT2C; for selectivity over the 5-HT2A receptor: 5-HT2C versus 5-HT2A
T3 construct: expressed in transfected cells; host or cells: HEK-293
T3 sequence (P28335 33-458): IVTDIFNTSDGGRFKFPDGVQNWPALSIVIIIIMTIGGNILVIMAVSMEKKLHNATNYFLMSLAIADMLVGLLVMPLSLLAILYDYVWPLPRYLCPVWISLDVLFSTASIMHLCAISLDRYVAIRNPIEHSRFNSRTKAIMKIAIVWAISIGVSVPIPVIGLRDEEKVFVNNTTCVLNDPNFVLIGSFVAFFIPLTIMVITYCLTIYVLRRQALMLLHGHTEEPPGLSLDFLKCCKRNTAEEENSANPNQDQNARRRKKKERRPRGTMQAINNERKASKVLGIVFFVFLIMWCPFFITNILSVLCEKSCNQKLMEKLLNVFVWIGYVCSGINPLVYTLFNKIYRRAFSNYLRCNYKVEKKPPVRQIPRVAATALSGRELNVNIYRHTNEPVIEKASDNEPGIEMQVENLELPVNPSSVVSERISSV
Experimental: as §1, with “The results are summarized in Table 1 where EC50 for different receptors are given (nM) and the ratio of activities 2A/2C and 2B/2C are also given.” left out
as §2, §3
Compounds are resuspended in DMSO at a stock concentration of 2-15 mM and, for a typical agonist screen, are diluted in assay buffer to a final 2× concentration of 20 μM into drugs plates. Compounds are added in duplicate to cell plates using the FlexStation II as described to identify agonists, defined as having >10% of maximal 5-HT response. […] Generally, screens are performed twice with each determination being made in duplicate.
as §4

[1] = Ca++-flux, HEK-293 cells, NA = not active, read-out: 5-HT2B human EC50
[2] = Ca++-flux, HEK-293 cells, NA = not active, read-out: 5-HT2C human EC50

T2 sequence (P28223 whole entry): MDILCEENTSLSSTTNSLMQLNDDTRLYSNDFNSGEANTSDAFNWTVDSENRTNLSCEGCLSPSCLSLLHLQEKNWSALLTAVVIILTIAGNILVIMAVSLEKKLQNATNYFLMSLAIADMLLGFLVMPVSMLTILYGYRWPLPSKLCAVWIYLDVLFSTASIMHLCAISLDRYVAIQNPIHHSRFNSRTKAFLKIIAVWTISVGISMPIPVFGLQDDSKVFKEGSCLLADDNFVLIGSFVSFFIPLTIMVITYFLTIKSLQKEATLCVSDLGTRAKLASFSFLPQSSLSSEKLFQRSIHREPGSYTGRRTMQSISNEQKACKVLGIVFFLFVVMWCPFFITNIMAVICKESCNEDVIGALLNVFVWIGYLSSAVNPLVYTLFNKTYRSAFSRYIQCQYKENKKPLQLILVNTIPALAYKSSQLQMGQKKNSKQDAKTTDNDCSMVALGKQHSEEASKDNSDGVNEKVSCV
T1 sequence (P41595 whole entry): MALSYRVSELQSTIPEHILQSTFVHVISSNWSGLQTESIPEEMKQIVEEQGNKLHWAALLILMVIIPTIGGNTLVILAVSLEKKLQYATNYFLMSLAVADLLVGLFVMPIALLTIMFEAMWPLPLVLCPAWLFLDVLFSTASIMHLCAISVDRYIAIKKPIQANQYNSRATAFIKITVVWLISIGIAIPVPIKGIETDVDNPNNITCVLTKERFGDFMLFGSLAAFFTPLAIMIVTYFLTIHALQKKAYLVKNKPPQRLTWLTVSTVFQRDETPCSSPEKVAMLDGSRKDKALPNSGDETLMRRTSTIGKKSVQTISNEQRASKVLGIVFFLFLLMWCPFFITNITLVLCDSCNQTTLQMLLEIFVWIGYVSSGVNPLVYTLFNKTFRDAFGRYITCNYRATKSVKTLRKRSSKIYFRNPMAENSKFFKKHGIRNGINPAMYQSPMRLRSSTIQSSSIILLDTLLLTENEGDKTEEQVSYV

Row | Molecule | EC50 (human 5-HT2B receptor; [1]) | EC50 (human 5-HT2A receptor) | EC50 (human 5-HT2C receptor; [2]) | 2A/2C ratio (human 5-HT2C receptor) | 2B/2C ratio (human 5-HT2C receptor) | other results
1 | trans-(±)-[2-(4-Bromo-phenyl)-cyclopropyl]-methylamine Hydrochloride [TKU-II-44] | 0.495 µM | 1.06 µM | 180 nM | 5.90 | 2.75 | 
2 | trans-(−)-(2-Phenyl-cyclopropyl)-methylamine Hydrochloride [TKU-II-115] | 1.54 µM | 1.69 µM | 280 nM | 6.02 | 5.49 | 
3 | c1ccc(CNC[C@@H]2C[C@H]2c2ccccc2)cc1 (racemic) [TKU-II-36, trans-(±)-N-Benzyl-(2-phenyl-cyclopropylmethyl)-amine] | 1020 µM | 123 µM | 7460 nM | 16.5 | 137 | 
4 | trans-(±)-[2-(4-Furan-2-yl-phenyl)-cyclopropyl]-methylamine Hydrochloride [TKU-II-81] |  | 281 µM | 82 nM | 3431 |  | activity at 5-HT2B receptor (human 5-HT2B receptor): no activity; selectivity over the 5-HT2A receptor (human 5-HT2C receptor): good selectivity
5 | trans-(±)-(2-Naphthalen-2-yl-cyclopropyl)-methylamine hydrochloride [TKU-II-42] | 15.4 µM | 0.951 µM | 6750 nM | 0.14 | 2.29 | 
6 | trans-(±)-(2-Phenyl-cyclopropyl)-methylamine Hydrochloride [TKU-II-113] |  |  |  |  |  | EC50 (human 5-HT2B receptor; Ca++-flux, HEK-293 cells, NA = not active, Hydrochloride, read-out: 5-HT2B human EC50): 0.0353 µM; EC50 (human 5-HT2A receptor; Hydrochloride): 0.0443 µM; EC50 (human 5-HT2C receptor; Ca++-flux, HEK-293 cells, NA = not active, Hydrochloride, read-out: 5-HT2C human EC50): 4.5 nM; 2A/2C ratio (human 5-HT2C receptor; Hydrochloride): 9.84; 2B/2C ratio (human 5-HT2C receptor; Hydrochloride): 7.84
7 | trans-(±)-[2-(4′-Chloro-biphenyl-4-yl)-cyclopropyl]-methylamine Hydrochloride [TKU-II-82] | 3.54 µM | 199 µM | 429 nM | 464 | 8.3 | selectivity over the 5-HT2A receptor (human 5-HT2C receptor): good selectivity
8 | N[C@@H]1C[C@H]1c1ccccc1 (relative stereo) [Tranylcypromine, trans-2-phenylcyclopropylamine, reference compound] |  |  |  |  |  | EC50 (human 5-HT2C receptor): 271 nM
9 | trans-(±)-[2-(3-Fluoro-phenyl)-cyclopropyl]-methylamine Hydrochloride [TKU-II-99] | 4.68 µM | 0.0634 µM | 63.2 nM | 1.0 | 74 | 
10 | CN[C@@H]1C[C@H]1c1ccccc1 (racemic) [TKU-II-38, trans-(±)-Methyl-(2-phenyl-cyclopropyl)-amine] |  | 165 µM | 2500 nM | 65.8 |  | 
11 | trans-(±)-[2-(4-Fluoro-phenyl)-cyclopropyl]-methylamine Hydrochloride [TKU-II-90] |  | 0.0071 µM |  |  |  | 
12 | trans-(−)-[2-(3-Bromo-phenyl)-cyclopropyl]-methylamine Hydrochloride [TKU-II-153-2] | 0.251 µM | 2.27 µM | 307 nM | 7.4 | 0.82 | 
13 | trans-(±)-[2-(4′-Chloro-biphenyl-2-yl)-cyclopropyl]-methylamine Hydrochloride [TKU-II-119] | 0.0637 µM | 0.215 µM | 2.54 nM | 85 | 25 | 
14 | trans-(+)-[2-(3-Bromo-phenyl)-cyclopropyl]-methylamine Hydrochloride [TKU-II-153-1] | 0.0213 µM | 0.0487 µM | 11.4 nM | 4.3 | 1.8 | 
15 | c1ccc(CN[C@@H]2C[C@H]2c2ccccc2)cc1 (racemic) [TKU-II-30, trans-(±)-Benzyl-(2-phenyl-cyclopropyl)-amine] |  | 9790 µM | 10500 nM | 929.5 | 1020 | EC50 (human 5-HT2B receptor): 10700 µM
16 | trans-(±)-[2-(4′-Chloro-biphenyl-3-yl)-cyclopropyl]-methylamine Hydrochloride [TKU-II-116] |  | 4 µM | 124 nM | 32.3 |  | 
17 | trans-(±)-[2-(4′-Trifluoromethyl-biphenyl-2-yl)-cyclopropyl]-methylamine Hydrochloride [TKU-II-120] |  |  | 10.1 nM |  |  | 5-HT2B human EC50 (human 5-HT2B receptor; Ca++-flux, HEK-293 cells, NA = not active): Not; 5-HT2A human EC50 (human 5-HT2A receptor): Not
18 | trans-(±)-[2-(4′-Trifluoromethyl-biphenyl-3-yl)-cyclopropyl]-methylamine Hydrochloride [TKU-II-117] |  | 277 µM | 465 nM | 596 |  | 
19 | CNC[C@@H]1C[C@H]1c1ccccc1 (racemic) [TKU-II-39, trans-(±)-Methyl-(2-phenyl-cyclopropylmethyl)-amine] | 0.98 µM | 3.71 µM | 718 nM | 5.18 | 1.36 | 
20 | trans-(±)-[2-(3-Bromo-phenyl)-cyclopropyl]-methylamine Hydrochloride [TKU-II-71] | 0.0192 µM | 0.0635 µM | 6.5 nM | 9.8 | 2.9 | activity at 5-HT2C receptor (human 5-HT2C receptor): partial agonist activity; Emax at the 5-HT2C receptor (human 5-HT2C receptor; partial agonist activity): 75%
21 | trans-(±)-[2-(2-Fluoro-phenyl)-cyclopropyl]-methylamine Hydrochloride [TKU-II-100] | 0.0002 µM | 0.00062 µM | 0.66 nM | 0.94 | 0.3 | activity at 5-HT2C receptor (human 5-HT2C receptor): good potency
22 | CC(C)N[C@@H]1C[C@H]1c1ccccc1 (racemic) [TKU-II-33, trans-(±)-Isopropyl-(2-phenyl-cyclopropyl)-amine] |  | 1470 µM | 8840 nM | 166 |  | 
